In US11504362B2, “Liquid dosage forms to treat cancer” (Exelixis, Inc., priority 2017, dated 2022):
Where a name gives a salt, the structure may show the parent alone.

Experiments:
clinical [1] = details: in vivo
Experimental: Pharmacokinetics: Serial blood, urine, and feces were collected at specified times following dosing.
All samples collected for radioactivity analysis were analyzed for total radioactivity.
Detailed reports of the bioanalytical methodologies and results accompany the clinical study report.
The other minor metabolite in plasma, p-Fluoroaniline, was analyzed by Exelixis using a validated LC/MS/MS method.
PK variables were computed using WinNonlin Professional, version 5.2.

clinical [2] = details: in vivo; remark: listed apart in the source
Experimental: Samples for 2 subjects were used for the investigation study. Therefore, only 6 subjects' PK profiles were determined using a radio-quantitation method.

AUC0-24 (clinical [1]; human) | AUC0-72 (clinical [1]; human) | AUC0-t (clinical [1]; human) | AUC0-24 (clinical [2]; human) [h · ngEq/mL] | AUC0-72 (clinical [2]; human) [h · ngEq/mL] | AUC0-t (clinical [2]; human) [h · ngEq/mL] | Tmax (clinical [2]; human) [h] | AUC0-inf (clinical [1]; human) | t1/2 (clinical [1]; human) [h] | kel (clinical [1]) [h⁻¹] | AUC0-inf (clinical [2]; human) [h · ngEq/mL] | Cmax (clinical [2]; human) [ngEq/mL] | t1/2 (clinical [2]; human) [h] | ke1 (clinical [2]) [h⁻¹] | Plasma concentrations (clinical [1]; male, human) [ng/mL] | SMILES
951 ± 377 (40) h · ng/mL | 7530 ± 3200 (42) h · ng/mL | 99500 ± 34500 (35) h · ng/mL | 2520 ± 1370 | 17400 ± 7000 | 89000 ± 32000 | ~71.99 | – | – | – | – | – | – | – | – | COc1cc2nccc(Oc3ccc(NC(=O)C4(C(=O)O)CC4)cc3)c2cc1OS(=O)(=O)O [6-Demethyl Half-Dimer Sulfate]
1080 ± 341 (32) h · ng/mL | 3120 ± 976 (31) h · ng/mL | 6540 ± 1680 (26) h · ng/mL | 3610 ± 1350 | 8680 ± 3980 | 11100 ± 5890 | 1.49 | 6770 ± 1700 (25) h · ng/mL | 91.8 | 0.00807 | 16400 ± 1770 | 210 ± 73 | 57.9 ± 28.4 | 0.0136 ± 0.00672 | – | COc1cc2nccc(Oc3ccc(NC(=O)C4(C(=O)O)CC4)cc3)c2cc1OC [XL184-Half-Dimer]
2030 ± 682 (34) h · ng/mL | 5610 ± 1940 (35) h · ng/mL | 10100 ± 3210 (32) h · ng/mL | 4300 ± 1460 | 10600 ± 3490 | 13300 ± 8360 | – | 10300 ± 3170 (31) h · ng/mL | 89.2 | 0.00846 | 20800 ± 7640 | – | 73.1 | 0.00976 ± 0.00212 | – | COc1cc2c(Oc3ccc(NC(=O)C4(C(=O)Nc5ccc(F)cc5)CC4)cc3)cc[n+]([O-])c2cc1OC [XL184-N-Oxide]
– | – | – | – | – | – | – | – | – | – | – | – | – | – | < 2.0 | Nc1ccc(F)cc1 [p-Fluoroaniline, Para-fluoroaniline]
